# Assay results from US20210254272A1, “TEXTILES HAVING ANTIMICROBIAL PROPERTIES” (Livinguard AG, priority 2015, published 2021).
# Test system: E. coli (ATCC 25922)
# Assay: AATCC Test Method 100-2012 antibacterial activity of the treated textile, after 25 washes and 12 abrasion cycles, contact time 60 minutes
# Type: cell-based
# Details: for Log reduction of antimicrobial performance: 1% o.w.f; for Log reduction of antimicrobial performance in 100 GSM cotton fabric / Log reduction of antimicrobial performance in 300 GSM cotton fabric: 2 min
# Description: The antibacterial activity of the textile was tested in accordance with AATCC Test Method 100-2012. Prior to the test, the fabric was cut into coupons of 2×4 inches and washed separately 25 times, and exposed to 12 abrasion cycles, as per US EPA protocol 90072PA4 (described further below). The tests were made against E. coli (ATCC 25922). Contact time was 60 minutes, after inoculating with 10^8 CFU per coupon.
# [1] = exhaust 80° C., 60 min, curing 180° C., dosage 0.1% o.w.f
# [2] = exhaust 80° C., 60 min, curing 180° C., dosage 0.2% o.w.f
# [3] = exhaust 80° C., 60 min, curing 180° C., dosage 0.5% o.w.f
# [4] = exhaust 80° C., 60 min, curing 180° C., dosage 0.8% o.w.f
# [5] = exhaust 80° C., 60 min, curing 180° C., dosage 1.0% o.w.f
substance,measurement,setting,value
polyglucosamine [chitosan],Log reduction of antimicrobial performance of each active ingredient,"exhaust 60° C., solution dosage 1% o.w.f, process time 60 min",1.4 Log
same,Log reduction of antimicrobial performance of each active ingredient,"exhaust 60° C., solution dosage 1% o.w.f, process time 90 min",1.5 Log
same,Log reduction of antimicrobial performance of each active ingredient,"exhaust 60° C., solution dosage 1% o.w.f, process time 120 min",1.6 Log
same,Log reduction of antimicrobial performance of each active ingredient,"exhaust 60° C., solution dosage 1% o.w.f, process time 180 min",1.7 Log
same,Log reduction of antimicrobial performance of each active ingredient,"exhaust 60° C., solution dosage 1% o.w.f, process time 240 min",1.65 Log
same,Log reduction of antimicrobial performance,"exhaust 80° C., 60 min, curing 170° C., curing dwell time 0.5 min",0.3 Log
same,Log reduction of antimicrobial performance,"exhaust 80° C., 60 min, curing 170° C., curing dwell time 1.0 min",0.7 Log
same,Log reduction of antimicrobial performance,"exhaust 80° C., 60 min, curing 170° C., curing dwell time 1.5 min",0.7 Log
same,Log reduction of antimicrobial performance,"exhaust 80° C., 60 min, curing 170° C., curing dwell time 2.0 min",1.4 Log
same,Log reduction of antimicrobial performance,"exhaust 80° C., 60 min, curing 170° C., curing dwell time 2.5 min",1.3 Log
same,Log reduction of antimicrobial performance,"exhaust 80° C., 60 min, curing 170° C., curing dwell time 3.0 min",0.64 Log
same,Log reduction of antimicrobial performance,"exhaust 80° C., 60 min, curing 180° C., curing dwell time 0.5 min",1.4 Log
same,Log reduction of antimicrobial performance,"exhaust 80° C., 60 min, curing 180° C., curing dwell time 1.0 min",1.5 Log
same,Log reduction of antimicrobial performance,"exhaust 80° C., 60 min, curing 180° C., curing dwell time 1.5 min",1.6 Log
same,Log reduction of antimicrobial performance,"exhaust 80° C., 60 min, curing 180° C., curing dwell time 2.0 min",3.5 Log
same,Log reduction of antimicrobial performance,"exhaust 80° C., 60 min, curing 180° C., curing dwell time 2.5 min",3.5 Log
same,Log reduction of antimicrobial performance,"exhaust 80° C., 60 min, curing 180° C., curing dwell time 3.0 min",3.4 Log
same,Log reduction of antimicrobial performance,"exhaust 80° C., 60 min, curing 190° C., curing dwell time 0.5 min",0.3 Log
same,Log reduction of antimicrobial performance,"exhaust 80° C., 60 min, curing 190° C., curing dwell time 1.0 min",1.2 Log
same,Log reduction of antimicrobial performance,"exhaust 80° C., 60 min, curing 190° C., curing dwell time 1.5 min",1.4 Log
same,Log reduction of antimicrobial performance,"exhaust 80° C., 60 min, curing 190° C., curing dwell time 2.0 min",2.66 Log
same,Log reduction of antimicrobial performance,"exhaust 80° C., 60 min, curing 190° C., curing dwell time 2.5 min",2.31 Log
same,Log reduction of antimicrobial performance,"exhaust 80° C., 60 min, curing 190° C., curing dwell time 3.0 min",1.3 Log
same,Log reduction of antimicrobial performance,"exhaust 80° C., 60 min, curing temperature 100 ° C.",0.16 Log
same,Log reduction of antimicrobial performance,"exhaust 80° C., 60 min, curing temperature 120 ° C.",0.23 Log
same,Log reduction of antimicrobial performance,"exhaust 80° C., 60 min, curing temperature 140 ° C.",0.88 Log
same,Log reduction of antimicrobial performance,"exhaust 80° C., 60 min, curing temperature 160 ° C.",1.34 Log
same,Log reduction of antimicrobial performance,"exhaust 80° C., 60 min, curing temperature 165 ° C.",1.38 Log
same,Log reduction of antimicrobial performance,"exhaust 80° C., 60 min, curing temperature 170 ° C.",1.48 Log
same,Log reduction of antimicrobial performance,"exhaust 80° C., 60 min, curing temperature 175 ° C.",2.41 Log
same,Log reduction of antimicrobial performance,"exhaust 80° C., 60 min, curing temperature 180 ° C.",2.67 Log
same,Log reduction of antimicrobial performance,"exhaust 80° C., 60 min, curing temperature 185 ° C.",2.68 Log
same,Log reduction of antimicrobial performance,"exhaust 80° C., 60 min, curing temperature 190 ° C.",2.69 Log
same,Log reduction of antimicrobial performance,"exhaust 80° C., 60 min, curing temperature 195 ° C.",2.71 Log
same,Log reduction of antimicrobial performance in 100 GSM cotton fabric,[1],0.63 Log
same,Log reduction of antimicrobial performance in 300 GSM cotton fabric,[1],0.65 Log
same,Log reduction of antimicrobial performance in 100 GSM cotton fabric,[2],1.37 Log
same,Log reduction of antimicrobial performance in 300 GSM cotton fabric,[2],1.38 Log
same,Log reduction of antimicrobial performance in 100 GSM cotton fabric,[3],1.91 Log
same,Log reduction of antimicrobial performance in 300 GSM cotton fabric,[3],1.91 Log
same,Log reduction of antimicrobial performance in 100 GSM cotton fabric,[4],2.21 Log
same,Log reduction of antimicrobial performance in 300 GSM cotton fabric,[4],2.21 Log
same,Log reduction of antimicrobial performance in 100 GSM cotton fabric,[5],2.71 Log
same,Log reduction of antimicrobial performance in 300 GSM cotton fabric,[5],2.72 Log
same,Log reduction of antimicrobial performance of each active ingredient,"exhaust 80° C., 60 min, dosage 1% o.w.f (test up to 5% o.w.f)",2.45 Log
same,Log reduction of antimicrobial performance of each active ingredient,"exhaust 80° C., 60 min, dosage 2% o.w.f",2.46 Log
same,Log reduction of antimicrobial performance of each active ingredient,"exhaust 80° C., 60 min, dosage 3% o.w.f",2.47 Log
same,Log reduction of antimicrobial performance of each active ingredient,"exhaust 80° C., 60 min, dosage 4% o.w.f",2.47 Log
same,Log reduction of antimicrobial performance of each active ingredient,"exhaust 80° C., 60 min, dosage 5% o.w.f",2.47 Log
same,Log reduction of antimicrobial performance of each active ingredient,"exhaust 80 ° C., solution dosage 1% o.w.f, process time 10 min",0.67 Log
same,Log reduction of antimicrobial performance of each active ingredient,"exhaust 80 ° C., solution dosage 1% o.w.f, process time 20 min",1.13 Log
same,Log reduction of antimicrobial performance of each active ingredient,"exhaust 80 ° C., solution dosage 1% o.w.f, process time 30 min",1.43 Log
same,Log reduction of antimicrobial performance of each active ingredient,"exhaust 80 ° C., solution dosage 1% o.w.f, process time 40 min",1.73 Log
same,Log reduction of antimicrobial performance of each active ingredient,"exhaust 80 ° C., solution dosage 1% o.w.f, process time 50 min",2.45 Log
same,Log reduction of antimicrobial performance of each active ingredient,"exhaust 80 ° C., solution dosage 1% o.w.f, process time 60 min",2.67 Log
same,Log reduction of antimicrobial performance of each active ingredient,"exhaust 80 ° C., solution dosage 1% o.w.f, process time 70 min",2.68 Log
same,Log reduction of antimicrobial performance of each active ingredient,"exhaust 80 ° C., solution dosage 1% o.w.f, process time 80 min",2.72 Log
